In ChEMBL document CHEMBL4665648, “Potent and selective inhibitors of receptor-interacting protein kinase 1 that lack an aromatic back pocket group” (Bioorg Med Chem Lett, 2019):

Legend:
[1] = target: Calcium/calmodulin-dependent protein kinase kinase 1 (Homo sapiens) (UniProt Q8N5S9); assay: Inhibition of tracer 236 binding to recombinant human GST-tagged full length CAMKK1 expressed in Escherichia coli expression system at 10 uM incubated for 60 mins by Lanthascreen assay relative to control
[2] = Inhibition of necroptosis in mouse L929 cells assessed as reduction in TNFalpha/BV6/zVAD-fmk-induced cell death incubated for 18 hrs by Cell Titer Glo luminescent cell viability assay; format: functional, cell-based; conditions: L929, 18 h
[3] = Clearance in Sprague-Dawley rat at 0.5 mg/kg, iv or 2 mg/kg, po; format: ADME, organism-based; conditions: in vivo
[4] = Inhibition of necroptosis in human HT-29 cells assessed as reduction in TNFalpha/BV6/zVAD-fmk-induced cell death incubated for 18 hrs by Cell Titer Glo luminescent cell viability assay; format: functional, cell-based; conditions: HT-29, 18 h
[5] = target: Interleukin-1 receptor-associated kinase 4 (Homo sapiens) (UniProt Q9NWZ3); assay: Inhibition of recombinant human His-tagged full length IRAK4 expressed in baculovirus expression system using Ser/Thr 07 as substrate at 10 uM incubated for 60 mins by Z'-Lyte assay relative to control
Sequence of Interleukin-1 receptor-associated kinase 4 (Homo sapiens) (Q9NWZ3 whole entry): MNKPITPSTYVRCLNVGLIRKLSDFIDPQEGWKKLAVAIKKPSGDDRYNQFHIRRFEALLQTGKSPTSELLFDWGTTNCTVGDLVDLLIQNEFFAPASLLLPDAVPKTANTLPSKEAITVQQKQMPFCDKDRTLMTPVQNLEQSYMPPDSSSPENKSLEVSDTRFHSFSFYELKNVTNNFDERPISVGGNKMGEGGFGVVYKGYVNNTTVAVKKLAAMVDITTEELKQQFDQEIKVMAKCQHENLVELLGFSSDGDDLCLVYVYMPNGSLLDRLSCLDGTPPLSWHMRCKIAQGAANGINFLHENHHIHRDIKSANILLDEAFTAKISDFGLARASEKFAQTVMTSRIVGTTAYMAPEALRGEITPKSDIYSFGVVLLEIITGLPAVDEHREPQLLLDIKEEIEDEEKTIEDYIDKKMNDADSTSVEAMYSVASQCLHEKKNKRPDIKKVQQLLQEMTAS

[6] = target: Serine/threonine-protein kinase Chk1 (Homo sapiens) (UniProt O14757); assay: Inhibition of recombinant human His-tagged full length CHK1 expressed in baculovirus expression system using Ser/Thr 19 as substrate at 10 uM incubated for 60 mins by Z'-Lyte assay relative to control
[7] = target: Dual specificity protein kinase CLK1 (Homo sapiens) (UniProt P49759); assay: Inhibition of recombinant human GST-tagged CLK1 (129 to 484 residues) expressed in Escherichia coli expression system using Ser/Thr 09 as substrate at 10 uM incubated for 60 mins by Z'-Lyte assay relative to control
Sequence of Dual specificity protein kinase CLK1 (Homo sapiens) (P49759 whole entry, looked up, the tested form may be a part): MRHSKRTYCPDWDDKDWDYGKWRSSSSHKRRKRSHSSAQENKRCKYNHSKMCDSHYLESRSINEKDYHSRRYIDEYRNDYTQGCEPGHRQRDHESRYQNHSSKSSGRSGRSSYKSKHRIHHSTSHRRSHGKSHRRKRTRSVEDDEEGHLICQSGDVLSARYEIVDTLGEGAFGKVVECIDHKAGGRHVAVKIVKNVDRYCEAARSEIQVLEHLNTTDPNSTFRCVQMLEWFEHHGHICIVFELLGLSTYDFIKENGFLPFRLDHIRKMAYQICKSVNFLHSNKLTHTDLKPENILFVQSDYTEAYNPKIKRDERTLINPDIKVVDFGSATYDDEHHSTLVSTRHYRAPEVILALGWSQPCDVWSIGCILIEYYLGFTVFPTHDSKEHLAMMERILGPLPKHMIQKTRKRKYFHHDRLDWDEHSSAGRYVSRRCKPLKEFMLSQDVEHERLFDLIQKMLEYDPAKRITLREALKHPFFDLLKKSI

[8] = target: Serine/threonine-protein kinase 17A (Homo sapiens) (UniProt Q9UEE5); assay: Inhibition of tracer 236 binding to recombinant human GST-tagged full length DRAK1 expressed in baculovirus expression system at 10 uM incubated for 60 mins by Lanthascreen assay relative to control
[9] = target: Dual specificity tyrosine-phosphorylation-regulated kinase 1A (Homo sapiens) (UniProt Q13627); assay: Inhibition of recombinant human GST-tagged full length DYRK1A expressed in baculovirus expression system using Ser/Thr 18 as substrate at 10 uM incubated for 60 mins by Z'-Lyte assay relative to control
[10] = target: Tyrosine-protein kinase Fgr (Homo sapiens) (UniProt P09769); assay: Inhibition of recombinant human C-terminal His-tagged full length FGR expressed in baculovirus expression system using Tyr 02 as substrate at 10 uM incubated for 60 mins by Z'-Lyte assay relative to control
[11] = target: Tyrosine-protein kinase Lck (Homo sapiens) (UniProt P06239); assay: Inhibition of recombinant human His-tagged full length LCK expressed in baculovirus expression system using Tyr 02 as substrate at 10 uM incubated for 60 mins by Z'-lyte assay relative to control
[12] = target: Tyrosine-protein kinase Lyn (Homo sapiens) (UniProt P07948); assay: Inhibition of LYN (unknown origin) by selectscreen kinase assay; conditions: dose 10.0 µM, time 60.0 min
[13] = target: Myosin light chain kinase, smooth muscle (Homo sapiens) (UniProt Q15746); assay: Inhibition of tracer 236 binding to recombinant human GST-tagged MYLK (1428 to 1771 residues) expressed in baculovirus expression system at 10 uM incubated for 60 mins by Lanthascreen assay relative to control
[14] = target: Serine/threonine-protein kinase NLK (Homo sapiens) (UniProt Q9UBE8); assay: Inhibition of tracer 178 binding to recombinant human GST-tagged full length NLK expressed in baculovirus expression system at 10 uM incubated for 60 mins by Lanthascreen assay relative to control
[15] = target: Phosphatidylinositol 3-kinase C2 domain-containing subunit gamma (Homo sapiens) (UniProt O75747); assay: Inhibition of recombinant human N-terminal GST-tagged PI3K-gamma (468 to 1203 residues) expressed in insect expression system using PI lipid kinase substrate mixture as substrate at 10 uM incubated for 60 mins by Adapta assay relative to control
[16] = target: Protein kinase C delta type (Homo sapiens) (UniProt Q05655); assay: Inhibition of recombinant human GST-tagged full length PKCdelta expressed in insect expression system using Ser/Thr 07 as substrate at 10 uM incubated for 60 mins by Z'-lyte assay relative to control
Sequence of Protein kinase C delta type (Homo sapiens) (Q05655 whole entry, looked up): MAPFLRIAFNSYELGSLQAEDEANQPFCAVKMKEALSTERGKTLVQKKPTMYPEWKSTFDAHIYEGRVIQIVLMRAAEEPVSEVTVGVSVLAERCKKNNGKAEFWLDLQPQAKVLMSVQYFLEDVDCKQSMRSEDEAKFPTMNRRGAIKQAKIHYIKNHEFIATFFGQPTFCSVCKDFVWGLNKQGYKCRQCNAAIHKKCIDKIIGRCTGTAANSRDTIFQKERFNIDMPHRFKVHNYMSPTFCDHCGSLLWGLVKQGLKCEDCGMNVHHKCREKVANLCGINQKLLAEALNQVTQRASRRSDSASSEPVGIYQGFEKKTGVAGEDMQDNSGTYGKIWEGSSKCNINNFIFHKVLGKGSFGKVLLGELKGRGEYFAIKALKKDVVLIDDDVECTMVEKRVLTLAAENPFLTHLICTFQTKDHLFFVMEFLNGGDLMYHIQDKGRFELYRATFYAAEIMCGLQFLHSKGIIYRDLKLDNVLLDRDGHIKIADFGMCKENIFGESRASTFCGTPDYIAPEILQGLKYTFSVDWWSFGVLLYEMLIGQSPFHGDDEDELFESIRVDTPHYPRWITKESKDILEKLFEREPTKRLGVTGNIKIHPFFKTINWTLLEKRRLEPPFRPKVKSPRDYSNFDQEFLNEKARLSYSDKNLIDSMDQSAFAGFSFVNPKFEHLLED

[17] = target: Protein kinase C eta type (Homo sapiens) (UniProt P24723); assay: Inhibition of recombinant human His-tagged full length PKCeta expressed in baculovirus expression system using Ser/Thr 07 as substrate at 10 uM incubated for 60 mins by Z'-lyte assay relative to control
Sequence of Protein kinase C eta type (Homo sapiens) (P24723 whole entry): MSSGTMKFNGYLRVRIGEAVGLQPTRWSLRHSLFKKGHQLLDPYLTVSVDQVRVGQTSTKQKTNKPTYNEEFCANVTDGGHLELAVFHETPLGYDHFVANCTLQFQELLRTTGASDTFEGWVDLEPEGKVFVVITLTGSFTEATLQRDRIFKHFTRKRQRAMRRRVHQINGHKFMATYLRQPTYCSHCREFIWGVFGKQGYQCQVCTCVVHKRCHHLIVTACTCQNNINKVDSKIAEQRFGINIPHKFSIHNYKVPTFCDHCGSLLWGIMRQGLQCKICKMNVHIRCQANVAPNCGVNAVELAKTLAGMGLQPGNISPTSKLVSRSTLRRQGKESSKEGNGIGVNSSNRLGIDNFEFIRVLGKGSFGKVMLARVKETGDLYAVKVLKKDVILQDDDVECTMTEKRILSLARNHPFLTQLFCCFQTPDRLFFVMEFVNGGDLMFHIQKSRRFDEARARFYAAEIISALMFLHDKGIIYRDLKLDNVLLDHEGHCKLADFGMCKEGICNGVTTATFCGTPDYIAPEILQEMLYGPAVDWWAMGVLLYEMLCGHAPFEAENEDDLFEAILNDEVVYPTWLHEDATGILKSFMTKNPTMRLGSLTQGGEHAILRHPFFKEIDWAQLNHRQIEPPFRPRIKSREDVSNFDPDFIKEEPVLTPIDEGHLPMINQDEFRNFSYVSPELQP

[18] = target: Serine/threonine-protein kinase PLK1 (Homo sapiens) (UniProt P53350); assay: Inhibition of recombinant human His-tagged full length PLK1 expressed in baculovirus expression system using Ser/Thr 16 as substrate at 10 uM incubated for 60 mins by Z'-lyte assay relative to control
Sequence of Serine/threonine-protein kinase PLK1 (Homo sapiens) (P53350 whole entry, the tested form may be a part): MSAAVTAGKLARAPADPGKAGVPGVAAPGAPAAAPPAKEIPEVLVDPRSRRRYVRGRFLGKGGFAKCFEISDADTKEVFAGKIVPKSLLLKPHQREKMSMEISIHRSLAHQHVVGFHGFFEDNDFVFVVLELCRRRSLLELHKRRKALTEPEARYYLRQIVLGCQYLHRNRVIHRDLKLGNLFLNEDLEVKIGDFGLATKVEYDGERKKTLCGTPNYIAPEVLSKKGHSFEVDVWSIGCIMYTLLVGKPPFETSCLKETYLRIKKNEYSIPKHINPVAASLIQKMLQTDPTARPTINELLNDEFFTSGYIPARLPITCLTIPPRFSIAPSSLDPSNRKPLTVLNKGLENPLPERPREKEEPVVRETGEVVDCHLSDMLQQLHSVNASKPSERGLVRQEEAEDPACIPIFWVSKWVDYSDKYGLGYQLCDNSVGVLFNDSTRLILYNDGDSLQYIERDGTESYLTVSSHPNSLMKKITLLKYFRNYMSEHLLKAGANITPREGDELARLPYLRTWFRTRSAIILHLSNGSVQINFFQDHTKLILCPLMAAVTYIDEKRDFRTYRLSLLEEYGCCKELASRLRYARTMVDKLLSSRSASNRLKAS

[19] = target: Serine/threonine-protein kinase PLK3 (Homo sapiens) (UniProt Q9H4B4); assay: Inhibition of recombinant human GST-tagged PLK3 (58 to 340 residues) expressed in baculovirus expression system using Ser/Thr 16 as substrate at 10 uM incubated for 60 mins by Z'-lyte assay relative to control
[20] = target: MAP kinase-activated protein kinase 5 (Homo sapiens) (UniProt Q8IW41); assay: Inhibition of recombinant human His-tagged full length PRAK expressed in baculovirus expression system using Ser/Thr 04 as substrate at 10 uM incubated for 60 mins by Z'-lyte assay relative to control
Sequence of MAP kinase-activated protein kinase 5 (Homo sapiens) (Q8IW41 whole entry): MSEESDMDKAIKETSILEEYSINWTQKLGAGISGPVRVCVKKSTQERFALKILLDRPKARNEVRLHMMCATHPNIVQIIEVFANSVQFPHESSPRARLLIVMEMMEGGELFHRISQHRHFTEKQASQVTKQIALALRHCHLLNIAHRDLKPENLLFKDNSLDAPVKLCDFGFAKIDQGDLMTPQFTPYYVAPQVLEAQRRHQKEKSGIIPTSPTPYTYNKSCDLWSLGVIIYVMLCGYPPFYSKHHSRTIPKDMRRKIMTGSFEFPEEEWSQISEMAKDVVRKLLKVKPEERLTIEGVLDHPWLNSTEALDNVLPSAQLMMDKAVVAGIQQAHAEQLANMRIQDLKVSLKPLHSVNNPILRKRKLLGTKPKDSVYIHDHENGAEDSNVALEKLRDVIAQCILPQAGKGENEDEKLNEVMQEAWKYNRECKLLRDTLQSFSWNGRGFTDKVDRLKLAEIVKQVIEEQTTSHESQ

[21] = target: SRSF protein kinase 1 (Homo sapiens) (UniProt Q96SB4); assay: Inhibition of recombinant human His-tagged full length SRPK1 expressed in baculovirus expression system using Ser/Thr 18 as substrate at 10 uM incubated for 60 mins by Z'-Lyte assay relative to control
Sequence of SRSF protein kinase 1 (Homo sapiens) (Q96SB4 whole entry): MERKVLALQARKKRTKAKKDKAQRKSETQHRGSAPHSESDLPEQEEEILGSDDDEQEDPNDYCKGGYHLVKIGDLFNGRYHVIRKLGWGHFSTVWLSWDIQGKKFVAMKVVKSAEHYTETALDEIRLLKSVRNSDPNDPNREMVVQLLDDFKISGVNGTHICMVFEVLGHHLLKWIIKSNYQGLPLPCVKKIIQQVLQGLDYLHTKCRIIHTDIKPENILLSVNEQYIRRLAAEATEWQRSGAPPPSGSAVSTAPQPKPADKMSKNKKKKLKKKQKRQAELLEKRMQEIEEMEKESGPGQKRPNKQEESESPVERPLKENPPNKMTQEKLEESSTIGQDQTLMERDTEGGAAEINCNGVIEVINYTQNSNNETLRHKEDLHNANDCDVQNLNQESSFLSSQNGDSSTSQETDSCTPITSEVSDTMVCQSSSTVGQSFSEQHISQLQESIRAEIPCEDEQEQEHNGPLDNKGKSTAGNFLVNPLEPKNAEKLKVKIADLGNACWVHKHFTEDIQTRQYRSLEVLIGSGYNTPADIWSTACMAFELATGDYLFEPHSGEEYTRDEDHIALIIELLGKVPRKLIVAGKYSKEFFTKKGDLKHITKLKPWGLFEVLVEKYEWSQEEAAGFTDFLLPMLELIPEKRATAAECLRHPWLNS

[22] = target: Tyrosine-protein kinase Srms (Homo sapiens) (UniProt Q9H3Y6); assay: Inhibition of recombinant human GST-tagged full length SRM expressed in baculovirus expression system using Tyr 01 as substrate at 10 uM incubated for 60 mins by Z'-Lyte assay relative to control
Sequence of Tyrosine-protein kinase Srms (Homo sapiens) (Q9H3Y6 whole entry, the tested form may be a part): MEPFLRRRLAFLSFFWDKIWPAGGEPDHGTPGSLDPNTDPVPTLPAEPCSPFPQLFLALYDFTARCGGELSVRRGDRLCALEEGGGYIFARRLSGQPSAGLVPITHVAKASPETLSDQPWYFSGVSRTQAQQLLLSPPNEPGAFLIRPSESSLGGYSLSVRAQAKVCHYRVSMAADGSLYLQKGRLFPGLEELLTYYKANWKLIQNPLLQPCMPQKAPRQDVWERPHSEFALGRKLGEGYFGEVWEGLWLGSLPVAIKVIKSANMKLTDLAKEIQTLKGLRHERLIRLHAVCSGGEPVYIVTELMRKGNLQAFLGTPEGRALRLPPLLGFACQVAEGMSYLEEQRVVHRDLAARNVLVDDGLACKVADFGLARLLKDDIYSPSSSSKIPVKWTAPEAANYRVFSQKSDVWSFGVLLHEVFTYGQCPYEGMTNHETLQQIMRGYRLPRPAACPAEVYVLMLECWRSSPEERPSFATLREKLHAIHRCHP

[23] = target: Tyrosine-protein kinase TXK (Homo sapiens) (UniProt P42681); assay: Inhibition of recombinant human N-terminal GST-tagged TXK (260 to 527 residues) expressed in baculovirus expression system using Tyr 06 as substrate at 10 uM incubated for 60 mins by Z'-Lyte assay relative to control
[24] = target: High affinity nerve growth factor receptor (Homo sapiens) (UniProt P04629); assay: Inhibition of recombinant human His-tagged TRKA (441 to 796 residues) expressed in baculovirus expression system using Tyr 01 as substrate at 10 uM incubated for 60 mins by Z'-Lyte assay relative to control
[25] = target: Mitogen-activated protein kinase 14 (Homo sapiens) (UniProt Q16539); assay: Inhibition of recombinant human GST-tagged full length p38 alpha expressed in Escherichia coli expression system using Ser/Thr 15 as substrate at 10 uM incubated for 60 mins by Z'-Lyte assay relative to control
Sequence of Mitogen-activated protein kinase 14 (Homo sapiens) (Q16539 whole entry): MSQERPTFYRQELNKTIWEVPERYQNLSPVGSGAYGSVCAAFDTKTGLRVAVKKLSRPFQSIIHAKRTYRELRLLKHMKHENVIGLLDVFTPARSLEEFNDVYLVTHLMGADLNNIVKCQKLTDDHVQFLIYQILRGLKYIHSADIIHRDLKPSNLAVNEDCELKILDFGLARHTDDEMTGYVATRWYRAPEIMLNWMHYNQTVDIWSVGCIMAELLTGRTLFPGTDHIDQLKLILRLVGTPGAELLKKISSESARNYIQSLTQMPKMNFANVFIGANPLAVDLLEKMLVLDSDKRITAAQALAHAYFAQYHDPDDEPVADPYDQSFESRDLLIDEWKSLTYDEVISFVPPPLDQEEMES

SMILES: CN1C(=O)[C@@H](NC(=O)c2n[nH]c3ncc(C(F)(F)C(F)(F)F)cc23)COc2ccccc21
- inhibition [1]: -5%
- EC50 [2]: 11 µM
- clearance [3]: 7.1 mL/min/kg
- EC50 [4]: 0.054 µM
- inhibition [5]: 6.5%
- inhibition [6]: -1%
- inhibition [7]: 3.5%
- inhibition [8]: 15.5%
- inhibition [9]: 3.5%
- inhibition [10]: 1.5%
- inhibition [11]: -0.5%
- inhibition [12]: 8%
- inhibition [13]: 7.5%
- inhibition [14]: -3.5%
- inhibition [15]: -5%
- inhibition [16]: 0.5%
- inhibition [17]: 5%
- inhibition [18]: 2.5%
- inhibition [19]: 7%
- inhibition [20]: 5%
- inhibition [21]: -2.5%
- inhibition [22]: 2.5%
- inhibition [23]: 8.5%
- inhibition [24]: 3%
- inhibition [25]: 0.5%
